Test results from ChEMBL document CHEMBL6134816, “The discovery of novel N-heterocyclic-based AKT inhibitors with potential efficacy against prostate cancer” (Eur J Med Chem, 2025).
The source made the active and inactive calls. No cut-off for these calls is given here.

Assays:
PC-3 [1] = test: cells; details: Homo sapiens, PC-3, 72 h
Description: Antiproliferative activity against human PC-3 cells assessed as inhibition of cell proliferation incubated for 72 hrs by MTT assay

PC-3 [2] = test: Induction of apoptosis in human PC-3 cells assessed as apoptotic rate at 1 uM incubated for 48 hrs by Annexin V-FITC/PI staining based flow cytometric analysis relative to control; assay type: functional
PC-3 [3] = test: Cell cycle arrest in human PC-3 cells assessed as accumulation of cells at G1 phase at 1 uM incubated for 48 hrs by PI staining based flow cytometric analysis (reference value: 60.75 %); assay type: functional
PC-3 [4] = test: Cell cycle arrest in human PC-3 cells assessed as accumulation of cells at S phase at 1 uM incubated for 48 hrs by PI staining based flow cytometric analysis (reference value: 24.79 %); assay type: functional
PC-3 [5] = test: Cell cycle arrest in human PC-3 cells assessed as accumulation of cells at G2 phase at 1 uM incubated for 48 hrs by PI staining based flow cytometric analysis (reference value: 14.45 %); assay type: functional
PC-3 [6] = test: Cell cycle arrest in human PC-3 cells assessed as accumulation of cells at G1 phase at 5 uM incubated for 48 hrs by PI staining based flow cytometric analysis (reference value: 60.75 %); assay type: functional
PC-3 [7] = test: Cell cycle arrest in human PC-3 cells assessed as accumulation of cells at S phase at 5 uM incubated for 48 hrs by PI staining based flow cytometric analysis (reference value: 24.79 %); assay type: functional
PC-3 [8] = test: Cell cycle arrest in human PC-3 cells assessed as accumulation of cells at G2 phase at 5 uM incubated for 48 hrs by PI staining based flow cytometric analysis (reference value: 14.45 %); assay type: functional
PC-3 [9] = test: Cell cycle arrest in human PC-3 cells assessed as accumulation of cells at G1 phase at 10 uM incubated for 48 hrs by PI staining based flow cytometric analysis (reference value: 60.75 %); assay type: functional
PC-3 [10] = test: Cell cycle arrest in human PC-3 cells assessed as accumulation of cells at S phase at 10 uM incubated for 48 hrs by PI staining based flow cytometric analysis (reference value: 24.79 %); assay type: functional
PC-3 [11] = test: Cell cycle arrest in human PC-3 cells assessed as accumulation of cells at G2 phase at 10 uM incubated for 48 hrs by PI staining based flow cytometric analysis (reference value: 14.45 %); assay type: functional
PC-3 [12] = test: Induction of apoptosis in human PC-3 cells assessed as apoptotic rate at 5 to 10 uM incubated for 48 hrs by Annexin V-FITC/PI staining based flow cytometric analysis relative to control; assay type: functional; details: dose 5-10 µM
PC-3 [13] = test: Inhibition of AKT signaling pathway in human PC-3 cells assessed as reduction in phosphorylated GSK3beta level at 1 to 10 uM incubated for 24 hrs by Western blot analysis; assay type: cell-based; details: dose 1-10 µM
PC-3 [14] = test: Upregulation of phosphorylated AKT expression level in human PC-3 cells at 1 to 10 uM incubated for 24 hrs by Western blot analysis; assay type: functional, cell-based; details: dose 1-10 µM
[15] = target: RAC-beta serine/threonine-protein kinase (Homo sapiens) (UniProt P31751); test: Inhibition of AKT2 (unknown origin) using biotin-tagged STK as substrate at 10 nM incubated for 40 mins in presence of ATP by fluorescence based microplate reader analysis relative to control
RAC-beta serine/threonine-protein kinase (Homo sapiens), sequence (P31751 whole entry): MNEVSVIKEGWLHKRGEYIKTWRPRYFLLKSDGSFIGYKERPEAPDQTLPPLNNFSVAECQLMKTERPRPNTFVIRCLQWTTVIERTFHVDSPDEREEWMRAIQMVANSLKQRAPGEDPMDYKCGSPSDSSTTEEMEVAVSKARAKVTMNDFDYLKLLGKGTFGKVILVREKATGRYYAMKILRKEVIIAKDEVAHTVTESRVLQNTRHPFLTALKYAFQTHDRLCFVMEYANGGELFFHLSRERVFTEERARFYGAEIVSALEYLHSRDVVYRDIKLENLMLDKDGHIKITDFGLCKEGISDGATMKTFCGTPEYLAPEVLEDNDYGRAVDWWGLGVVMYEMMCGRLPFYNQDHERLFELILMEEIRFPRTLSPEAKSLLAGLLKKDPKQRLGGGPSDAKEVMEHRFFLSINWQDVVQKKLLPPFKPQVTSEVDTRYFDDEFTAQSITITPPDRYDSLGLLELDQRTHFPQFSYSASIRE

[16] = target: RAC-gamma serine/threonine-protein kinase (Homo sapiens) (UniProt Q9Y243); test: Inhibition of AKT3 (unknown origin) using biotin-tagged STK as substrate at 10 nM incubated for 40 mins in presence of ATP by fluorescence based microplate reader analysis relative to control
RAC-gamma serine/threonine-protein kinase (Homo sapiens), sequence (Q9Y243 whole entry): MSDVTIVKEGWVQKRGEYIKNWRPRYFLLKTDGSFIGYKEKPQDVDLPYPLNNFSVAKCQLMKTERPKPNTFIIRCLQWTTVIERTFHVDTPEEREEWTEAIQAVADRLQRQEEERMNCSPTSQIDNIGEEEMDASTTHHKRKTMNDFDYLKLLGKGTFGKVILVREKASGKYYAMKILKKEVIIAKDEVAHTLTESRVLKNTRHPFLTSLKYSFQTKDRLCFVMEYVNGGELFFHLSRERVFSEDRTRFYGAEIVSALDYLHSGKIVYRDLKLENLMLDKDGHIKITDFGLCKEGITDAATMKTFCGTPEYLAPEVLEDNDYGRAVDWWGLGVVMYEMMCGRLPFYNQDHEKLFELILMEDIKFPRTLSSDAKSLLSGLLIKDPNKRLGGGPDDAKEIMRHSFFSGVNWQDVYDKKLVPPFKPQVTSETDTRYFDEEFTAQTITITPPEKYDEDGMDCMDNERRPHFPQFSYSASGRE

[17] = target: Ribosomal protein S6 kinase alpha-1 (Homo sapiens) (UniProt Q15418); test: Inhibition of RSK1 (unknown origin) at 1 uM relative to control
Homo sapiens [18] = organism: Homo sapiens; test: Inhibition of PKA (unknown origin) at 1 uM relative to control
[19] = target: Ribosomal protein S6 kinase beta-1 (Homo sapiens) (UniProt P23443); test: Inhibition of p70S6K (unknown origin) at 1 uM relative to control
Ribosomal protein S6 kinase beta-1 (Homo sapiens), sequence (P23443 whole entry, looked up): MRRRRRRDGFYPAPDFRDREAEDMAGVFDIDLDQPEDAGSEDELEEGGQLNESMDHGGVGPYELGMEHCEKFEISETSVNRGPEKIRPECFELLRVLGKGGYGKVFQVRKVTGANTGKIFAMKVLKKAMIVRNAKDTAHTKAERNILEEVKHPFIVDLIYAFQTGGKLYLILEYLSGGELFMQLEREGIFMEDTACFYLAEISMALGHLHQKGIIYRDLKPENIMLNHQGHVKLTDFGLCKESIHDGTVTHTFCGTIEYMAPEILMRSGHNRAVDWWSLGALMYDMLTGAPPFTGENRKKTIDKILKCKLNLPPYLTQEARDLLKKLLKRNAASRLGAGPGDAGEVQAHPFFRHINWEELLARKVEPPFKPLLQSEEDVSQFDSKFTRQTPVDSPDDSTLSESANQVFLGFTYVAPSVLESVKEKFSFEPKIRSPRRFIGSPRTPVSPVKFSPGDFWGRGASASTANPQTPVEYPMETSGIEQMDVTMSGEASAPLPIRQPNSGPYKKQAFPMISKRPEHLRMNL

[20] = target: Rho-associated protein kinase 1 (Homo sapiens) (UniProt Q13464); test: Inhibition of ROCK1 (unknown origin) at 1 uM relative to control
Rho-associated protein kinase 1 (Homo sapiens), sequence (Q13464 2-1354 limits assumed): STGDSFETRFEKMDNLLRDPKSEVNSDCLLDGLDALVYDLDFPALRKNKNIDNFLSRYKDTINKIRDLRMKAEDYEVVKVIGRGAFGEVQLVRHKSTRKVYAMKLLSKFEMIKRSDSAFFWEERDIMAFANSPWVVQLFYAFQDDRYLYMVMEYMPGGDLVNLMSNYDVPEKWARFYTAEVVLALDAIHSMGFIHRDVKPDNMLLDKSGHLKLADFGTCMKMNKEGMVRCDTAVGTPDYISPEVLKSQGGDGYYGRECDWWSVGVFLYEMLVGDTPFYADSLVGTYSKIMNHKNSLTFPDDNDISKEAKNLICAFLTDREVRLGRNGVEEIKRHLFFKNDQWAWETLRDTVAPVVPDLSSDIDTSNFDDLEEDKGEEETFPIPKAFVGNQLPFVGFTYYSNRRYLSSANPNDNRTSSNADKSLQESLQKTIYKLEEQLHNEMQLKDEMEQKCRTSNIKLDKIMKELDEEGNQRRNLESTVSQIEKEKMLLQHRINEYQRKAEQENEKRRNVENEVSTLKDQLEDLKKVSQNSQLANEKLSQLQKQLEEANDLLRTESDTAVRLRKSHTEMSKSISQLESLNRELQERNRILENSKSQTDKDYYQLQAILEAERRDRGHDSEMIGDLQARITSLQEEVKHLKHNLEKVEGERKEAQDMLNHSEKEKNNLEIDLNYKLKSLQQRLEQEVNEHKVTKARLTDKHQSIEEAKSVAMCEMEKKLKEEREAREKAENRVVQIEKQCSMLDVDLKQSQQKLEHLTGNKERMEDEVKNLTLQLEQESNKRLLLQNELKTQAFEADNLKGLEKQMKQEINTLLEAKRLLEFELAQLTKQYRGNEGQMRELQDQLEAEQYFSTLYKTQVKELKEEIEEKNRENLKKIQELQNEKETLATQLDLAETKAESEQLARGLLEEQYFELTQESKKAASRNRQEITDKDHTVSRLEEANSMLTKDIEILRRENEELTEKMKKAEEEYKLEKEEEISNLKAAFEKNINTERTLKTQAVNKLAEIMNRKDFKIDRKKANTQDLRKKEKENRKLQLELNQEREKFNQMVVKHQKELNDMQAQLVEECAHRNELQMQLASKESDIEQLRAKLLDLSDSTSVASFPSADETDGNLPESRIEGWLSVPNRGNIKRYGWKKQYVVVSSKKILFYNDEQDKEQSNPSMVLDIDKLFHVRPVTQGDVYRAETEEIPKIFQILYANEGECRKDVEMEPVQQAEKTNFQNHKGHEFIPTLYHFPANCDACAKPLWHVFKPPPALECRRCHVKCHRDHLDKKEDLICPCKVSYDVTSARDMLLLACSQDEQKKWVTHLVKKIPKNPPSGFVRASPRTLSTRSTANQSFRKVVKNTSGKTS

Homo sapiens [21] = organism: Homo sapiens; test: Inhibition of ABL (unknown origin) at 1 uM relative to control
[22] = target: Cyclin-dependent kinase 1 (Homo sapiens) (UniProt P06493); test: Inhibition of CDK1 (unknown origin) at 1 uM relative to control
Cyclin-dependent kinase 1 (Homo sapiens), sequence (P06493 whole entry, looked up): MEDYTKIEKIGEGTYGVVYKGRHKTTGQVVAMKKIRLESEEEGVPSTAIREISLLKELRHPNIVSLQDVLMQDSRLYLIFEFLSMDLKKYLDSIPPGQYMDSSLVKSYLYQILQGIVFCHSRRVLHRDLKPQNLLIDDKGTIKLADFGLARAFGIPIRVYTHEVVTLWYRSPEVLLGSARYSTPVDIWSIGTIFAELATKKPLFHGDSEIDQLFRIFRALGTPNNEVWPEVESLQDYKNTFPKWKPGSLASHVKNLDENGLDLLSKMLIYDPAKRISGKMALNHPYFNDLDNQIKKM

[23] = target: Glycogen synthase kinase-3 beta (Homo sapiens) (UniProt P49841); test: Inhibition of GSK3beta (unknown origin) at 1 uM relative to control
[24] = target: Tyrosine-protein kinase JAK1 (Homo sapiens) (UniProt P23458); test: Inhibition of JAK1 (unknown origin) at 1 uM relative to control
[25] = target: MAP kinase-interacting serine/threonine-protein kinase 1 (Homo sapiens) (UniProt Q9BUB5); test: Inhibition of MNK1 (unknown origin) at 1 uM relative to control
MAP kinase-interacting serine/threonine-protein kinase 1 (Homo sapiens), sequence (Q9BUB5 whole entry, looked up): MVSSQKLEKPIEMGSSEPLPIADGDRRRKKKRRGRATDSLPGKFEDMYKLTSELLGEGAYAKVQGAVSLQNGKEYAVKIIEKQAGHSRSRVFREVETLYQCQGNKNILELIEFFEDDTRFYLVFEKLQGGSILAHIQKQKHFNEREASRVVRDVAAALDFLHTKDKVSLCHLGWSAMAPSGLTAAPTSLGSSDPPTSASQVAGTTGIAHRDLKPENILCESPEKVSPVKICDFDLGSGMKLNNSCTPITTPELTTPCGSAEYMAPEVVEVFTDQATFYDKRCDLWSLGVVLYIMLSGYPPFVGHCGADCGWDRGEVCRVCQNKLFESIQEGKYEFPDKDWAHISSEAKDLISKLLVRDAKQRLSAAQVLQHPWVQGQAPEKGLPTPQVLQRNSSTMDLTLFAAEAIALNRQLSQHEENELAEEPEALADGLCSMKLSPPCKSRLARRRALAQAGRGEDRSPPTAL

[26] = target: Serine/threonine-protein kinase B-raf (Homo sapiens) (UniProt P15056); test: Inhibition of B-raf (unknown origin) at 1 uM relative to control
Serine/threonine-protein kinase B-raf (Homo sapiens), sequence (P15056 whole entry): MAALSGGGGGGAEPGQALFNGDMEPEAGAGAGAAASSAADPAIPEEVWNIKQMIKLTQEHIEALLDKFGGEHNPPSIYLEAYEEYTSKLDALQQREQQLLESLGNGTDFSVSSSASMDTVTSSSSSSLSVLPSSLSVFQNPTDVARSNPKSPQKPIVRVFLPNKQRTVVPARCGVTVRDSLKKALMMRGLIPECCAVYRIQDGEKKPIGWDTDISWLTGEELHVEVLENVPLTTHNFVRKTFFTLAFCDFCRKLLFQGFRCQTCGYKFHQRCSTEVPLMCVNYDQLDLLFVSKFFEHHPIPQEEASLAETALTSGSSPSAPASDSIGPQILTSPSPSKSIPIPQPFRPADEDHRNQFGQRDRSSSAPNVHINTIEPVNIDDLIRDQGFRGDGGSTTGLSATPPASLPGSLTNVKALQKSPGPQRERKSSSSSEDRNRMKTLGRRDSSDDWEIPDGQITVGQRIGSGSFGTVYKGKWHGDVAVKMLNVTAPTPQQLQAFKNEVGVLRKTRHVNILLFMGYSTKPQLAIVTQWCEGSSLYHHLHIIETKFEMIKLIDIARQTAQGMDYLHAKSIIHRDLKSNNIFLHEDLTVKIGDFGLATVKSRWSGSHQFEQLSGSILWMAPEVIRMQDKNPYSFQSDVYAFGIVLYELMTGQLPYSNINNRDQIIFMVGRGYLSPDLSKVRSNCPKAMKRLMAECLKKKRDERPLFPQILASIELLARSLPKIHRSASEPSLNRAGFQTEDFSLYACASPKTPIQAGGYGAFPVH

[27] = target: RAF proto-oncogene serine/threonine-protein kinase (Homo sapiens) (UniProt P04049); test: Inhibition of RAF-1 (unknown origin) at 1 uM relative to control
RAF proto-oncogene serine/threonine-protein kinase (Homo sapiens), sequence (P04049 whole entry): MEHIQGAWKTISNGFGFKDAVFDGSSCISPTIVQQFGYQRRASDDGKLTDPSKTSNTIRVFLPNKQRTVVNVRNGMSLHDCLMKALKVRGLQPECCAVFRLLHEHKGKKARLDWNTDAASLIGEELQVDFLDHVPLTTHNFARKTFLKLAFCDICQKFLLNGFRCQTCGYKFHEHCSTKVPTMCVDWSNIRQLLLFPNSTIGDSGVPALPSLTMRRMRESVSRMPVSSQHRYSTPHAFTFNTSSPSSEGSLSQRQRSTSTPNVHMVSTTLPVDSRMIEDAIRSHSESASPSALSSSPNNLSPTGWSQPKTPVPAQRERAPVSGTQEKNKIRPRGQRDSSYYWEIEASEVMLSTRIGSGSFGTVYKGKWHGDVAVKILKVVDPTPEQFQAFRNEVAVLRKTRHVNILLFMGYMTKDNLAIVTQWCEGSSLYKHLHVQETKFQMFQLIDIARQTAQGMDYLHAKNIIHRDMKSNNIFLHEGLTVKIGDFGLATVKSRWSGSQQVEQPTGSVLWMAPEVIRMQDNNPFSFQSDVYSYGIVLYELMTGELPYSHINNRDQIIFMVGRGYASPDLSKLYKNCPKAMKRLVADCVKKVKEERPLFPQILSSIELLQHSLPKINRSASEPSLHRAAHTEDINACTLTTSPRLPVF

[28] = Clearance in male ICR mouse at 1 mg/kg, iv measured after 24 hrs by LC-MS/MS analysis; assay type: ADME, organism-based; details: in vivo
[29] = Half-life in male ICR mouse at 1 mg/kg, iv measured after 24 hrs by LC-MS/MS analysis; assay type: ADME, organism-based; details: in vivo
[30] = AUC (0 to t) in male ICR mouse at 1 mg/kg, iv measured after 24 hrs by LC-MS/MS analysis; assay type: ADME, organism-based; details: in vivo
[31] = AUC (0 to infinity) in male ICR mouse at 1 mg/kg, iv measured after 24 hrs by LC-MS/MS analysis; assay type: ADME, organism-based; details: in vivo
[32] = Volume of distribution in male ICR mouse at 1 mg/kg, iv measured after 24 hrs by LC-MS/MS analysis; assay type: ADME, organism-based; details: in vivo
[33] = MRT (0 to infinity) in male ICR mouse at 1 mg/kg, iv measured after 24 hrs by LC-MS/MS analysis; assay type: ADME, organism-based; details: in vivo
[34] = Half-life in male ICR mouse at 10 mg/kg, po measured after 24 hrs by LC-MS/MS analysis; assay type: ADME, organism-based; details: in vivo
[35] = AUC (0 to t) in male ICR mouse at 10 mg/kg, po measured after 24 hrs by LC-MS/MS analysis; assay type: ADME, organism-based; details: in vivo
[36] = AUC (0 to infinity) in male ICR mouse at 10 mg/kg, po measured after 24 hrs by LC-MS/MS analysis; assay type: ADME, organism-based; details: in vivo
[37] = MRT (0 to infinity) in male ICR mouse at 10 mg/kg, po measured after 24 hrs by LC-MS/MS analysis; assay type: ADME, organism-based; details: in vivo
[38] = Tmax in male ICR mouse at 10 mg/kg, po measured after 24 hrs by LC-MS/MS analysis; assay type: ADME, organism-based; details: in vivo
[39] = Cmax in male ICR mouse at 10 mg/kg, po measured after 24 hrs by LC-MS/MS analysis; assay type: ADME, organism-based; details: in vivo
[40] = Oral bioavailability in male ICR mouse at 10 mg/kg measured after 24 hrs by LC-MS/MS analysis; assay type: ADME, organism-based; details: in vivo

In the case of `CC(C)NCC(C(=O)N1CCN(c2ncnc3[nH]ncc23)CC1)c1ccc(Br)cc1` (stereo not given), the IC50 (PC-3 [1]) is reported as 12.4 µM.

`CC(C)NCC(C(=O)N1CCN(c2ncnc3[nH]ncc23)CC1)c1ccc(Cl)cc1Cl` (stereo not given) gave an IC50 (PC-3 [1]) greater than 40 µM.

With `CNc1nc(N2CCN(C(=O)C(CNC(C)C)c3ccc(Br)cc3)CC2)c2cc[nH]c2n1` (stereo not given) the IC50 (PC-3 [1]) was 8.7 µM.

`CC(C)NCC(C(=O)N1CCN(c2ncnc3ccccc23)CC1)c1ccc(Cl)cc1Cl` (stereo not given) gave an IC50 (PC-3 [1]) greater than 40 µM.

`Cc1c[nH]c2ncnc(N3CCN(C(=O)C(CNC(C)C)c4ccc(Cl)cc4Cl)CC3)c12` (stereo not given) showed an IC50 (PC-3 [1]) of 22 µM.

With `CC(C)NCC(C(=O)N1CCN(c2ncnc3ccccc23)CC1)c1ccc(Br)cc1` (stereo not given) the IC50 (PC-3 [1]) was 30.2 µM.

`CNc1nc(N2CCN(C(=O)C(CNC(C)C)c3ccc(Cl)cc3Cl)CC2)c2sccc2n1` (stereo not given) showed an IC50 (PC-3 [1]) of 5.9 µM.

Compound `CCn1c(-c2nonc2N)nc2c(C#CC(C)(C)O)ncc(OC[C@H]3CCCNC3)c21` [GSK-690693] has an Activity (PC-3 [2]) of 10.52%, an Activity (PC-3 [3]) of 48.89% and an Activity (PC-3 [4]) of 45.34%. It also gave an Activity (PC-3 [5]) of 5.77%, an Activity (PC-3 [6]) of 48.64% and an Activity (PC-3 [7]) of 46.38%. For the same compound, the Activity (PC-3 [8]) was 4.98%, the Activity (PC-3 [9]) was 48.79% and the Activity (PC-3 [10]) was 47.26%. It also gave an Activity (PC-3 [11]) of 3.96%.

Compound `CC(C)NCC(C(=O)N1CCN(c2ncnc3[nH]cnc23)CC1)c1ccc(Br)cc1` (stereo not given) has an IC50 (PC-3 [1]) of 20.1 µM.

In the case of `CNc1nc(N2CCN(C(=O)C(CNC(C)C)c3ccc(Cl)cc3Cl)CC2)c2cc[nH]c2n1` (stereo not given), the IC50 (PC-3 [1]) is reported as 18.1 µM.

Compound `CC(C)NCC(C(=O)N1CCN(c2ncnc3[nH]nc(Br)c23)CC1)c1ccc(Br)cc1` (stereo not given) has an Activity (PC-3 [2]) of 12.28%, an Activity (PC-3 [12]) greater than 20% and an Activity (PC-3 [3]) of 49.42%. It also gave an Activity (PC-3 [4]) of 38.35%, an Activity (PC-3 [5]) of 12.24% and an Activity (PC-3 [6]) of 53.21%. It also gave an Activity (PC-3 [7]) of 36.75%, an Activity (PC-3 [8]) of 10.04% and an Activity (PC-3 [9]) of 52.45%. For the same compound, the Activity (PC-3 [10]) was 38.31%, the Activity (PC-3 [11]) was 9.23% and the inhibition (PC-3 [13]) was “Active”. The Activity (PC-3 [14]) was “Active; Negative Feedback Regulation Within Akt Signaling Pathway Observed”, the inhibition [15] was 64% and the inhibition [16] was 89%. For the same compound, the inhibition [17] was 99%, the inhibition (Homo sapiens [18]) was 98% and the inhibition [19] was 101%. The inhibition [20] was 91%, the inhibition (Homo sapiens [21]) was less than 60% and the inhibition [22] was less than 60%. The inhibition [23] was less than 60%, the inhibition [24] was less than 60% and the inhibition [25] was less than 60%. For the same compound, the inhibition [26] was less than 60%, the inhibition [27] was less than 60% and the clearance [28] was 78.6 mL/min/kg. It also gave a half-life [29] of 1.85 h, an AUC(0-t) at 24 h [30] of 202 ng·h/mL and an AUC(0-inf) [31] of 214 ng·h/mL. The Vd [32] was 12.3 L/kg, the MRT inf [33] was 1.68 h and the half-life [34] was 1.59 h. For the same compound, the AUC(0-t) at 24 h [35] was 830 ng·h/mL, the AUC(0-inf) [36] was 876 ng·h/mL and the MRT inf [37] was 2.43 h. The Tmax [38] was 0.5 h, the Cmax [39] was 306 ng/mL and the bioavailability [40] was 41%. For the same compound, the IC50 (PC-3 [1]) was 3 µM.

`CNc1nccc(N2CCN(C(=O)C(CNC(C)C)c3ccc(Br)cc3)CC2)n1` (stereo not given) showed an IC50 (PC-3 [1]) greater than 40 µM.

Compound `CNc1nccc(N2CCN(C(=O)C(CNC(C)C)c3ccc(Cl)cc3Cl)CC2)n1` (stereo not given) has an IC50 (PC-3 [1]) of 27.8 µM.

Work on `CC(C)NCC(C(=O)N1CCN(c2ncnc3[nH]cnc23)CC1)c1ccc(Cl)cc1Cl` (stereo not given) yielded an IC50 (PC-3 [1]) of 23.8 µM.

`Cc1c[nH]c2ncnc(N3CCN(C(=O)C(CNC(C)C)c4ccc(Br)cc4)CC3)c12` (stereo not given) showed an IC50 (PC-3 [1]) of 15.8 µM.

Compound `CC(C)NCC(C(=O)N1CCN(c2ncnc3[nH]nc(Cl)c23)CC1)c1ccc(Cl)cc1Cl` (stereo not given) has an IC50 (PC-3 [1]) of 3.5 µM.

Work on `CC(C)NCC(C(=O)N1CCN(c2ncnc3[nH]nc(Cl)c23)CC1)c1ccc(Br)cc1` (stereo not given) yielded an Activity (PC-3 [2]) of 15.13%, an Activity (PC-3 [12]) greater than 20% and an Activity (PC-3 [3]) of 52.46%. The Activity (PC-3 [4]) was 32.69%, the Activity (PC-3 [5]) was 14.35% and the Activity (PC-3 [6]) was 53.89%. The Activity (PC-3 [7]) was 36.86%, the Activity (PC-3 [8]) was 9.25% and the Activity (PC-3 [9]) was 46.45%. For the same compound, the Activity (PC-3 [10]) was 47.17%, the Activity (PC-3 [11]) was 6.37% and the inhibition (PC-3 [13]) was “Active”. The Activity (PC-3 [14]) was “Active; Negative Feedback Regulation Within Akt Signaling Pathway Observed” and the IC50 (PC-3 [1]) was 2.9 µM.

With `CNc1nc(N2CCN(C(=O)C(CNC(C)C)c3ccc(Br)cc3)CC2)c2sccc2n1` (stereo not given) the IC50 (PC-3 [1]) was 4.9 µM.

Work on `CC(C)NCC(C(=O)N1CCN(c2ncnc3[nH]nc(Br)c23)CC1)c1ccc(Cl)cc1Cl` (stereo not given) yielded an IC50 (PC-3 [1]) of 7.8 µM.
